According to paper PMC3038857, “Using Nuclear Receptor Activity to Stratify Hepatocarcinogens” (PLoS ONE, 2011):
Like-named read-outs stand apart in the source and are kept apart here.

Assays:
[1] = target: T1, PPARG (peroxisome proliferator-activated receptor gamma) (Homo sapiens, UniProt P37231); experiment: ATG_PPARg_TRANS: Factorial reporter gene assay (HepG2); assay type: cell-based
T1 construct: expressed in transfected cells; host or cells: HepG2
T1 sequence (P37231 1-505): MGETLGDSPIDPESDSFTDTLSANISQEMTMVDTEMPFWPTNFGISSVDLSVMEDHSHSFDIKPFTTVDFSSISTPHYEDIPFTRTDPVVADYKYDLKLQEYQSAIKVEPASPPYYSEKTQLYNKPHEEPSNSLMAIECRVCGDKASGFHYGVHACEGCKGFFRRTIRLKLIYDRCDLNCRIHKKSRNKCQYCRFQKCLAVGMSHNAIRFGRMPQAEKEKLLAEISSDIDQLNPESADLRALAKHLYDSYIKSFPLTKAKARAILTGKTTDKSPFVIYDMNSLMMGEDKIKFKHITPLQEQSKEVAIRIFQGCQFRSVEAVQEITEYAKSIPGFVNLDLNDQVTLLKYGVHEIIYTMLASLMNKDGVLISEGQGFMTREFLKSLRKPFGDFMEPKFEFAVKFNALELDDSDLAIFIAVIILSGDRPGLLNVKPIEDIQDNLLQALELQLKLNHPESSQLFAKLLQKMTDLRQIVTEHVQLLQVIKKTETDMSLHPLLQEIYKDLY
Protocol: (§1) A multiple reporter transcription unit (MRTU) library consisting of 48 transcription factor binding sites was transfected into the HepG2 human liver hepatoma cell line. In addition to the cis-acting reporter genes (CIS), a modification of the approach was used to generate a trans-system (TRANS) with a mammalian one-hybrid assay consisting of an additional 25 MRTU library reporting the activity of nuclear receptor super-family members. […] These assays were performed by Attagene Inc. (Morrisville NC) under contract to EPA.
(§2) In addition to the cis-acting reporter genes (CIS), a modification of the approach was used to generate a trans-system (TRANS) with a mammalian one-hybrid assay consisting of an additional 25 MRTU library reporting the activity of nuclear receptor super-family members. […] Chemicals were then tested in the CIS and TRANS assays at seven concentrations starting at the MTC and followed by three-fold serial dilutions. These assays were performed by Attagene Inc. (Morrisville NC) under contract to EPA. Detailed description of the methods, data and analysis methods for this dataset will be presented in a separate publication.

[2] = tested on: CYP1A2; experiment: CLZD_CYP1A2: Change in expression of CYP1A2 (primary human hepatocytes); assay type: cell-based; conditions: 24 hr
Protocol: (§3) This is a collection of multiplexed gene expression assays focused on Phase I and II xenobiotic metabolizing enzymes and transporters. Human primary cell cultures were treated with chemicals at 5 concentrations (0.004-40 [drawing 42] M) for 6, 24 and 48 hr. Concentration- and time-response profiles of chemicals were measured by the expression of key nuclear receptor target genes, activities of CYP1A enzymes (EROD), and cell morphology. Fourteen gene targets were monitored by quantitative nuclease protection assay including: six representative cytochrome P-450 genes, four hepatic transporters, three Phase II conjugating enzymes, and one endogenous metabolism gene involved in cholesterol synthesis. The target genes associated with nuclear receptor pathways are as follows: [drawing 43] and [drawing 44] with [drawing 45]; [drawing 46] , [drawing 47] , [drawing 48] , [drawing 49] , [drawing 50] and [drawing 51] with [drawing 52]; [drawing 53] , [drawing 54] , [drawing 55] and [drawing 56] with [drawing 57]; [drawing 58] with [drawing 59]; and [drawing 60] with [drawing 61] . Assays were run in primary human hepatocyte cultures by CellzDirect Invitrogen Inc. (Durham, NC), in collaboration with EPA.
(§4) Multiplexed Gene Expression in Human Primary Hepatocytes: This is a collection of multiplexed gene expression assays focused on Phase I and II metabolic enzymes and transporters. […] Fourteen gene targets were monitored by quantitative nuclease protection assay: six representative cytochrome P450 genes, four hepatic transporters, three Phase II conjugating enzymes, and one endogenous metabolism gene involved in cholesterol synthesis. Cells were exposed at 5 concentrations (0.004-40 µM) for 6, 24 or 48 hr. Gene targets are sentinels for five nuclear receptor signaling pathways: AhR, CAR, PXR, FXR, and PPARα. All gene are associated with nuclear receptor pathways: CYP1A1 and CYP1A2 with AHR; ABCB1, ABCG2, CYP2B6, CYP2C9, CYP2C19 and UGT1A1 with CAR; CYP3A4, GSTA2, SLCO1B1 and SULT2A1 with PXR; HMGCS2 with PPARA; and ABCB11 with FXR. […] Detailed description of the methods, data and analysis methods for this dataset will be presented in a separate publication.

[3] = tested on: CYP2B6; experiment: CLZD_CYP2B6: Change in expression of CYP2B6 (primary human hepatocytes); assay type: cell-based; conditions: 24 hr
Outline: (§5)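 Read-out: mRNA change by multiplexed quantitative nuclease protection assay. Primary human hepatocytes; 5 concentrations, 0.004-40 µM; exposures 6, 24, 48 hr.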

[4] = tested on: CYP3A4; experiment: CLZD_CYP3A4: Change in expression of CYP3A4 (primary human hepatocytes); assay type: cell-based; conditions: 24 hr
Outline: as §5

[5] = tested on: Mouse Liver; conditions: ref ToxRefDB, cited from earlier work
[6] = tested on: Mouse Liver; conditions: ref ToxRefDB, cited from earlier work; remark: listed apart in the source
[7] = tested on: Mouse Liver; conditions: ref ToxRefDB, cited from earlier work; remark: listed apart in the source
[8] = tested on: Rat Liver; conditions: ref ToxRefDB, cited from earlier work
[9] = tested on: Rat Liver; conditions: ref ToxRefDB, cited from earlier work; remark: listed apart in the source
[10] = tested on: Rat Liver; conditions: ref ToxRefDB, cited from earlier work; remark: listed apart in the source
[11] = target: T2, PXR (NR1I2) (Homo sapiens, UniProt O75469); experiment: ATG_PXR_TRANS: Factorial reporter gene assay (HepG2); assay type: cell-based; parameters: endogenous in cells; host or cells: HepG2
T2 sequence (O75469 1-434): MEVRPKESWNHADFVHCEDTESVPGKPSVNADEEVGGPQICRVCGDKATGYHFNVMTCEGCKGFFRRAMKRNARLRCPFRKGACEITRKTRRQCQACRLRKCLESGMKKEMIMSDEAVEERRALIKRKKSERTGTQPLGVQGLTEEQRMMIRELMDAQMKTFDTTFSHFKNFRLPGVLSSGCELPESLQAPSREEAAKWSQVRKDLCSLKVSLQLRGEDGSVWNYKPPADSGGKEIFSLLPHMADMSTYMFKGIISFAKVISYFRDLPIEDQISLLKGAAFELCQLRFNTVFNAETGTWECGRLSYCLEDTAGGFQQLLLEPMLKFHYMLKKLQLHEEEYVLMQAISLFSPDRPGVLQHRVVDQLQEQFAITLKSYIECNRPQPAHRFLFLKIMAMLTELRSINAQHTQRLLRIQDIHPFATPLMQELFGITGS
Protocol: as §1, §2

[12] = target: T2, PXR (NR1I2); experiment: ATG_PXRE_CIS: Factorial reporter gene assay (HepG2); assay type: cell-based; parameters: endogenous in cells; host or cells: HepG2
Outline: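 Mammalian one-hybrid trans reporters (25 MRTUs) measured ERRg, FXR and PPARg; PXRE used cis reporters from a 48-site MRTU library. Both were run in HepG2. Dosing: seven concentrations, MTC as the highest, three-fold dilution series.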

[13] = target: T3, PXR Human (NR1I2) (Homo sapiens, UniProt O75469); experiment: NCGC_PXR_Agonist_human: GAL4 BLAM Reporter gene assay: PXR Human; assay type: cell-based; conditions: agonist mode
T3 sequence (O75469 146-434 limits assumed): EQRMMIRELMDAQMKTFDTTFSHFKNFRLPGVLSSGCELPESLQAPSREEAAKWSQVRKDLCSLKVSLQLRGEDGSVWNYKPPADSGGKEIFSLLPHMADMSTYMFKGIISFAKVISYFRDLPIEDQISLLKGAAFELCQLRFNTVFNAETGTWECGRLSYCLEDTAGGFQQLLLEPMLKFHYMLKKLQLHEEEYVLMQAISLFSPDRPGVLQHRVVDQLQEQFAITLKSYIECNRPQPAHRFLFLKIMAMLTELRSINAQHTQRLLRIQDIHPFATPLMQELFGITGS
Protocol: These assays measure binding constants and enzyme inhibition values for nuclear receptors. The targets include [drawing 67] , [drawing 68] , [drawing 69] , [drawing 70] , [drawing 71] , [drawing 72] , [drawing 73] , [drawing 74] , [drawing 75] and [drawing 76] . Each of the nuclear receptor targets was measured in agonist mode. Assays were run at the NIH Chemical Genomics Center (Rockville, MD).
Cell-based HTS Assays: These assays measuring binding constants and enzyme inhibition values for nuclear receptors. The targets include AR, ER, FXR, LXR, PPARα, PPARδ, PPARγ, RXRα, RXRβ and PXR. Each of the nuclear receptor targets was measured in both agonist and antagonist mode, but the antagonist data is still undergoing analysis due to possible interference between cytotoxicity and assay activity, so antagonist mode data were not used in the present analysis. Assays were run at the NIH Chemical Genomics Center (Rockville, MD) as part of the Tox21 collaboration. […] The R^2 was required to be ≥0.5. Values where only the highest concentration exceeded 50% activity were excluded to eliminate weak or false positives. Detailed description of the methods, data and analysis methods for this dataset will be presented in a separate publication.

[14] = tested on: CYP1A1; experiment: CLZD_CYP1A1: Change in expression of CYP1A1 (primary human hepatocytes); assay type: cell-based; conditions: 24 hr
Protocol: as §3, §4

[15] = target: T2, PXR (NR1I2); experiment: NVS_NR_hPXR: Human PXR Fluormone PXR (SXR) green (cell-free HTS); assay type: binding
From the text: These are a collection of biochemical assays measuring binding constants and enzyme inhibition values. Chemicals were initially screened at a single concentration in duplicate wells at a concentration of 10 [drawing 63] M for cytochrome P-450 assays and 25 [drawing 64] M for all others. […] These assays were run by Caliper Life Sciences (Hanover, MD) under contract to EPA. Short assay descriptions are available at: http://www.caliperls.com/products/contract-research/in-vitro/.
Cell-free HTS Assays: A collection of biochemical assays measuring binding constants and enzyme inhibition values. […] These assays were run by Caliper Life Sciences (Hanover, MD) under contract to EPA. Short assay descriptions are available at http://www.caliperls.com/products/contract-research/in-vitro/. Values for all endpoints were imported into GeneData Screener (Basel, Switzerland) and normalised to solvent controls from the same plate as the tested compounds and expressed as percent of neutral control. Concentration-response curves were fit in GeneData Screener (Basel, Switzerland) Condeseo module using the Hill equation and AC50 values were determined. […] Detailed description of the methods, data and analysis methods for this dataset are described in a separate publication.

## CCCCOCCOCCOCc1cc2c(cc1CCC)OCO2 [r246]
[1]; HepG2
  ATG_PPARg_TRANS: 4.602
[2]
  CLZD_CYP1A2_24: 5.617
[3]
  CLZD_CYP2B6_24: 5.592
[4]
  CLZD_CYP3A4_24: 5.527
[5]; mouse, chronic study
  CHR_Mouse_Liver_1_AnyLesion: 6
[6]; mouse, chronic study
  CHR_Mouse_Liver_2_PreneoplasticLesion: 6
[7]; mouse, chronic study
  CHR_Mouse_Liver_3_NeoplasticLesion: 6
[8]; rat, chronic study
  CHR_Rat_Liver_1_AnyLesion: 6
[9]; rat, chronic study
  CHR_Rat_Liver_2_PreneoplasticLesion: 6
[10]; rat, chronic study
  CHR_Rat_Liver_3_NeoplasticLesion: 0
[11]; HepG2
  ATG_PXR_TRANS: 4.824
[12]; HepG2
  ATG_PXRE_CIS: 5.42

## CCOC(=O)COc1cc(-c2nn(C)c(OC(F)F)c2Cl)c(F)cc1Cl [r271]
[1]; HepG2 reporter
  ATG_PPARg_TRANS: 4.328
[3]
  CLZD_CYP2B6_24: 4.918
[4]
  CLZD_CYP3A4_24: 5.138
[13]
  NCGC_PXR_Agonist_human: 4.477
[5]; chronic study, mouse liver
  CHR_Mouse_Liver_1_AnyLesion: 6
[6]; chronic study, mouse liver
  CHR_Mouse_Liver_2_PreneoplasticLesion: 6
[7]; chronic study, mouse liver
  CHR_Mouse_Liver_3_NeoplasticLesion: 6
[8]; chronic study, rat liver
  CHR_Rat_Liver_1_AnyLesion: 6
[9]; chronic study, rat liver
  CHR_Rat_Liver_2_PreneoplasticLesion: 6
[10]; chronic study, rat liver
  CHR_Rat_Liver_3_NeoplasticLesion: 0
[11]; HepG2 reporter
  ATG_PXR_TRANS: 4.538
[12]; HepG2 reporter
  ATG_PXRE_CIS: 4.26

## CNc1cnn(-c2cccc(C(F)(F)F)c2)c(=O)c1Cl [row 222]
[14]
  CLZD_CYP1A1_24: 5.028
[2]
  CLZD_CYP1A2_24: 4.939
[3]
  CLZD_CYP2B6_24: 4.975
[4]
  CLZD_CYP3A4_24: 5.266
[5]; chronic mouse study, liver
  CHR_Mouse_Liver_1_AnyLesion: 6
[6]; chronic mouse study, liver
  CHR_Mouse_Liver_2_PreneoplasticLesion: 6
[7]; chronic mouse study, liver
  CHR_Mouse_Liver_3_NeoplasticLesion: 6
[12]; HepG2
  ATG_PXRE_CIS: 4.62

## CCCN(CCC)c1c([N+](=O)[O-])cc(S(N)(=O)=O)cc1[N+](=O)[O-] [row 224]
[3]
  CLZD_CYP2B6_24: 4.989
[4]
  CLZD_CYP3A4_24: 4.897
[13]
  NCGC_PXR_Agonist_human: 5.133
[15]
  NVS_NR_hPXR: 5.395
[8]; chronic rat study, liver
  CHR_Rat_Liver_1_AnyLesion: 0
[9]; chronic rat study, liver
  CHR_Rat_Liver_2_PreneoplasticLesion: 0
[10]; chronic rat study, liver
  CHR_Rat_Liver_3_NeoplasticLesion: 0
[11]; HepG2
  ATG_PXR_TRANS: 5.538
[12]; HepG2
  ATG_PXRE_CIS: 5.921
